The record followed here is patent US20240294543A1, “CYCLOHEPTA-THIENO-DIAZEPINE DERIVATIVES AS GABA A GAMMA1 PAM” (Hoffmann-La Roche Inc., priority 2021, published 2024).

For assay [1], the target named is human GABAA α5β2γ1 receptor (Homo sapiens (Human), UniProt P31644+Q8N1C3). Put plainly: Radioligand binding assay, competition for [3H]RO7239181, γ1-containing GABAA subtypes.
The target of assay [2] is human GABAA α2β2γ1 receptor (Homo sapiens (Human), UniProt P47869+Q8N1C3). The description is as above.
For assay [3], the target named is human GABAA α1β3γ2 receptor (Homo sapiens (Human), UniProt P14867+P18507). Put plainly: Radioligand binding assay, competition for [3H]Flumazenil, γ2-containing GABAA subtypes. The note with it: for γ2/γ1 Selectivity Ratio: Ki α1β3γ2 (nM)/Ki α2β2γ1 (nM); for LogSel: Log[Ki α1β3γ2 (nM)/Ki α2β2γ1 (nM)]. An outline of the steps:
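Competition against [3H]Flumazenil binding in HEK293F cells transiently expressing human α1β3γ2 receptors, pellets resuspended in mannitol buffer pH 7,2-7,4. Incubated to equilibrium 1 hour at 4° C, filtered and washed with ice-cold 50 mM Tris pH 7.5, bound radioactivity by liquid scintillation counting. Ki values are means of two determinations.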

The mark [4] stands for this setting: Ki h-GABAA α2β2γ1, membranes of HEK293F cells, [3H]RO7239181 20-30 nM, Table 1.
Setting [5] is: Ki h-GABAA α2β2γ1, membranes of HEK293F cells, [3H]RO7239181 20-30 nM, Table 2.
Setting [6] is: HEK293F cells, [3H]Flumazenil 1 nM, Table 1, read-out: Ki h-GABAA α1β3γ2.

SMILES strings stand for the structures. Read-outs that look alike come from different tables or passages of the source.

Turning to `C[C@@H]1N=C(c2c(F)cccc2F)c2c(sc3c2COCCO3)-n2nc(C(=O)NC[C@@](C)(O)C(F)(F)F)nc21` [Example 46, (7S)-9-(2,6-difluorophenyl)-7-methyl-N-[(2R)-3,3,3-trifluoro-2-hydroxy-2-methyl-propyl]-13,16-dioxa-18-thia-2,3,5,8-tetrazatetracyclo[8.8.0.02,6.011,17]octadeca-1(10),3,5,8,11(17)-pentaene-4-carboxamide], the Ki in assay [1] turned out to be 3.54 nM; in assay [2] (setting [4]), 15.2 nM; in assay [2] (setting [5]), 15.2 nM; in assay [3] (setting [6]) it was 4320 nM. Besides, the “γ2/γ1 Selectivity Ratio” value in assay [3] (Table 1) is 284.3. For the same molecule, the LogSel in assay [3] (Table 1) was 2.45.
With `C[C@@H]1N=C(c2c(F)cccc2F)c2c(sc3c2COCCO3)-n2nc(C(=O)NC[C@](C)(O)C(F)(F)F)nc21` [Example 47, (7S)-9-(2,6-difluorophenyl)-7-methyl-N-[(2S)-3,3,3-trifluoro-2-hydroxy-2-methyl-propyl]-13,16-dioxa-18-thia-2,3,5,8-tetrazatetracyclo[8.8.0.02,6.011,17]octadeca-1(10),3,5,8,11(17)-pentaene-4-carboxamide], the Ki was determined as 4.43 nM in assay [1], 20.3 nM in assay [2] (setting [4]), 20.3 nM in assay [2] (setting [5]) and 3540 nM in assay [3] (setting [6]). Besides, the “γ2/γ1 Selectivity Ratio” value in assay [3] (Table 1) amounted to 174.6. The LogSel in assay [3] (Table 1) is 2.24.
Turning to `C[C@@H]1N=C(c2c(F)cccc2F)c2c(sc3c2COCCO3)-n2c(C(F)F)nnc21` [Example 48, (7S)-3-(difluoromethyl)-9-(2,6-difluorophenyl)-7-methyl-13,16-dioxa-18-thia-2,4,5,8-tetrazatetracyclo[8.8.0.02,6.011,17]octadeca-1(10),3,5,8,11(17)-pentaene], the Ki was 13.5 nM in assay [1], 47.9 nM in assay [2] (setting [4]), 47.9 nM in assay [2] (setting [5]) and greater than 30000 nM in assay [3]. In assay [3] (Table 1), the “γ2/γ1 Selectivity Ratio” value is recorded as 626.6. In assay [3] (Table 1), this molecule yielded a LogSel of 2.80.
Take `CCc1nc2n(n1)-c1sc3c(c1C(c1c(F)cccc1F)=N[C@H]2C)COC[C@H](C)O3` [Example 49, (7S,15S)-9-(2,6-difluorophenyl)-4-ethyl-7,15-dimethyl-13,16-dioxa-18-thia-2,3,5,8-tetrazatetracyclo[8.8.0.02,6.011,17]octadeca-1(10),3,5,8,11(17)-pentaene]: the inhibitory constant (Ki) was found to be 3.32 nM in assay [1], 52.5 nM in assay [2] (setting [4]), 52.5 nM in assay [2] (setting [5]) and 8750 nM in assay [3]. For the same molecule, the “γ2/γ1 Selectivity Ratio” value in assay [3] (Table 1) came out at 166.8. In assay [3] (Table 1), this molecule returned a LogSel of 2.22.
On to `Cc1nnc2n1-c1sc3c(c1C(c1c(F)cccc1F)=N[C@H]2C)COCCC3` [Example 52, (7S)-9-(2,6-difluorophenyl)-3,7-dimethyl-13-oxa-18-thia-2,4,5,8-tetrazatetracyclo[8.8.0.02,6.011,17]octadeca-1(10),3,5,8,11(17)-pentaene], for which the Ki in assay [1] was 7.6 nM; in assay [2] (Ki h-GABAA α2β2γ1, Table 3, reference compounds and examples), 27.7 nM; in assay [2] (setting [4]), 27.7 nM; in assay [2] (setting [5]), 27.7 nM; in assay [3], 2780 nM. In addition, the “γ2/γ1 Selectivity Ratio” value in assay [3] (Table 1) and in assay [3] (Table 3) was 100.3 each time. The LogSel in assay [3] (Table 1) is reported as 2.00; in assay [3] (Table 3) it was 2.0.
With `C[C@@H]1N=C(c2c(F)cccc2F)c2c(sc3c2COC[C@H](C)O3)-n2nc(C(=O)NCCO)nc21` [Example 53, (7S,15S)-9-(2,6-difluorophenyl)-N-(2-hydroxyethyl)-7,15-dimethyl-13,16-dioxa-18-thia-2,3,5,8-tetrazatetracyclo[8.8.0.02,6.011,17]octadeca-1(10),3,5,8,11(17)-pentaene-4-carboxamide], the Ki in assay [1] came out at 6.2 nM; in assay [2] (setting [4]), 95.3 nM; in assay [2] (setting [5]), 95.3 nM; in assay [3] (setting [6]) it was 11400 nM. Further, in assay [3] (Table 1), the “γ2/γ1 Selectivity Ratio” value was 119.7. Moreover, the LogSel in assay [3] (Table 1) was 2.08.

In general, Ki refers to the dissociation constant of the complex between target and ligand, obtained from inhibition or displacement.
